Data taken from ChEMBL document CHEMBL1201862, “PubChem BioAssay data set” (2004).
The source made the active and inactive calls.

Assays:
[1] = intracellular Trypanosoma cruzi inhibitors in host cells – cell-based, plate reader, cherry-pick samples, set 3, dose response (AID 651818); format: functional;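 also: compounds incubated with infected cells for about four days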
[2] = biological target: T1, Corticotropin-releasing factor receptor 2/Corticotropin-releasing factor-binding protein (Homo sapiens, UniProt P24387+Q13324); test: Dose Response confirmation of uHTS hits for small molecule antagonists of the CRF-binding protein and CRF-R2 receptor complex.; format: functional; details: read-out: IC50_Mean
T1 sequence (Q13324 whole entry): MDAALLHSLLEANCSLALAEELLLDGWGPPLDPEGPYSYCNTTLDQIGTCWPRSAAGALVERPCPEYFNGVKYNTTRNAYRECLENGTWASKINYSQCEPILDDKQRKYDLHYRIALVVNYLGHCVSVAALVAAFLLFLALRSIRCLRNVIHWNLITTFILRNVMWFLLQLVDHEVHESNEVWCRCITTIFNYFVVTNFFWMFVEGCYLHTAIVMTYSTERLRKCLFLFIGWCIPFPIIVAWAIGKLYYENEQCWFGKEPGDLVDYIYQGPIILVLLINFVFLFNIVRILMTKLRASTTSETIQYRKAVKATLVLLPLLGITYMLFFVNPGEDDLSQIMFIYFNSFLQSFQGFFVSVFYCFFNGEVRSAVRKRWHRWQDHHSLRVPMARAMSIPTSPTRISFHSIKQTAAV
T1 sequence (P24387 whole entry): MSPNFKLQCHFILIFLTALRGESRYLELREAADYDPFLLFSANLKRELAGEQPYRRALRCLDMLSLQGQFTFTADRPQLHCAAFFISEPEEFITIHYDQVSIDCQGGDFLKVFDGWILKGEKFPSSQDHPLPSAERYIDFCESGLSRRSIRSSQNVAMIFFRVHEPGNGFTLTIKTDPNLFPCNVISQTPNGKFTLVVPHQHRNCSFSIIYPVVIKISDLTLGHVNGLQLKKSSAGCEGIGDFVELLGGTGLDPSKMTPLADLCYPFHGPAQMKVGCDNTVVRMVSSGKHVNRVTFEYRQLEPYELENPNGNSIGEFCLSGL

[3] = biological target: T1, Corticotropin-releasing factor receptor 2/Corticotropin-releasing factor-binding protein; test: activators of CRF receptor 2 with binding protein – uHTS hits, confirmation (AID 602473); format: functional; details: read-out: EC50_Mean
[4] = biological target: T2, Heat shock factor protein 1 (Mus musculus, UniProt P38532); test: enhancement of HSF1-driven luciferase signal – cell-based, NIH3T3, luminescence, dose retest, confirmation (AID 435004); format: functional;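 also: stress induced by proteasome inhibitor MG132 added 30 min after compound; luciferase reporter driven by HSF1 response element in NIH3T3 cells; actives raise luminescence as potentiators of the MG132 stress response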
T2 sequence (P38532 whole entry): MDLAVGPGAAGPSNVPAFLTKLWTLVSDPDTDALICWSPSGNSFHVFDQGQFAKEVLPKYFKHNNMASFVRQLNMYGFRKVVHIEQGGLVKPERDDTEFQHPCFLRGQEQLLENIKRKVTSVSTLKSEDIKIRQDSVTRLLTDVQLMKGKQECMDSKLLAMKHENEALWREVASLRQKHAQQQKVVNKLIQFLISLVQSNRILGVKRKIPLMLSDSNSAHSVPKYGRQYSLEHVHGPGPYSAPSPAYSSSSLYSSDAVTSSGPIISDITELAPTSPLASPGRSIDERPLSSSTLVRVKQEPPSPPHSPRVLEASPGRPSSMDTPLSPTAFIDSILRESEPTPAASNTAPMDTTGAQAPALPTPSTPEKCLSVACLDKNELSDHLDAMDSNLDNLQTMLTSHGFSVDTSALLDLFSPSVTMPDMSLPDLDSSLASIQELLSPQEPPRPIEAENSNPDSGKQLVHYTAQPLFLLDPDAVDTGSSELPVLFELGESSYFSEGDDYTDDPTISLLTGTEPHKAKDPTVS

[5] = biological target: T3, Polyadenylate-binding protein 1 (Homo sapiens, UniProt P11940); test: MLLE binding blockers, Cy5 peptide tracer – biochemical, fluorescence polarization, Cy5-PAM2 peptide, secondary, miRNA deadenylation inhibitor project, dose response (AID 602260); format: functional; details: read-out: IC50_Mean
[6] = biological target: T3, Polyadenylate-binding protein 1; test: MLLE domain peptide-binding blockers, IC50 – biochemical, fluorescence polarization, FITC-PAM2 peptide, dose response (AID 602259); format: functional; details: read-out: IC50_Mean
[7] = biological target: T4, Calpain-2 catalytic subunit (Sus scrofa, UniProt P43367); test: m-calpain protease blockers, concentration series – biochemical, fluorogenic peptide substrate, dose response (AID 1420); format: functional
T4 sequence (P43367 whole entry): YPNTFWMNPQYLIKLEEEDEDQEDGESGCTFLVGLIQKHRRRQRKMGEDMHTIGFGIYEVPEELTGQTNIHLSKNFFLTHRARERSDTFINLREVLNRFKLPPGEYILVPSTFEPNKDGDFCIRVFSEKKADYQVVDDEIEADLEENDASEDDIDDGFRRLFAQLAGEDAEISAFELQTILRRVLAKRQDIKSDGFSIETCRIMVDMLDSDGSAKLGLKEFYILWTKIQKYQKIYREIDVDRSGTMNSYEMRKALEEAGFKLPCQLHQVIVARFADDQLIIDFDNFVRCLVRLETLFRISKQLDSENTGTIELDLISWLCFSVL

[8] = NIH-3T3 fibroblast cytotoxicity, dose response, cytotoxicity control, cell-based, fluorescence, Alamar Blue, secondary assay (AID 2327); format: functional;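 also: NIH-3T3 mouse fibroblasts cultured with fluconazole at 8 µg/mL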
[9] = fluconazole-exposed Candida albicans growth modulators – fluorescence, retest, confirmation (AID 2467); format: functional, cell-based
[10] = biological target: T2, Heat shock factor protein 1; test: decrease of HSF1-responsive luciferase luminescence – cell-based, NIH3T3, dose retest, confirmation (AID 2382); format: functional;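 also: NIH3T3 fibroblasts with HSF1-driven luciferase reporter stressed by proteasome inhibitor MG132; luminescence from HSF1-driven luciferase expression after 8 hours of MG132 stress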
[11] = microbe, parasite or virus in culture; format: functional; details: Mycobacterium tuberculosis
[12] = THP-1 cell cytotoxicity, dose response, cytotoxicity control for non-replicating M. tuberculosis project (AID 489025); format: functional
[13] = alpha-synuclein stem-loop luciferase translation blockers – H4 neuroglioma cells, luminescence, confirmation (AID 1988); format: functional, cell-based
[14] = Luminescence Cell-Based Dose Response HTS to Identify Inhibitors of 5'UTR Stem-Loop Driven Prion Protein mRNA Translation in H4 Neuroglioblastoma Cells. [Related pubchem assays: 1827 (Project Summary), 1813 (Primary HTS)]; format: functional
[15] = luciferase reporter signal suppression in cells – H4 neuroglioma cells, luminescence, dose response (AID 1990); format: functional, cell-based

T3 sequence (P11940 whole entry, the tested form may be a part): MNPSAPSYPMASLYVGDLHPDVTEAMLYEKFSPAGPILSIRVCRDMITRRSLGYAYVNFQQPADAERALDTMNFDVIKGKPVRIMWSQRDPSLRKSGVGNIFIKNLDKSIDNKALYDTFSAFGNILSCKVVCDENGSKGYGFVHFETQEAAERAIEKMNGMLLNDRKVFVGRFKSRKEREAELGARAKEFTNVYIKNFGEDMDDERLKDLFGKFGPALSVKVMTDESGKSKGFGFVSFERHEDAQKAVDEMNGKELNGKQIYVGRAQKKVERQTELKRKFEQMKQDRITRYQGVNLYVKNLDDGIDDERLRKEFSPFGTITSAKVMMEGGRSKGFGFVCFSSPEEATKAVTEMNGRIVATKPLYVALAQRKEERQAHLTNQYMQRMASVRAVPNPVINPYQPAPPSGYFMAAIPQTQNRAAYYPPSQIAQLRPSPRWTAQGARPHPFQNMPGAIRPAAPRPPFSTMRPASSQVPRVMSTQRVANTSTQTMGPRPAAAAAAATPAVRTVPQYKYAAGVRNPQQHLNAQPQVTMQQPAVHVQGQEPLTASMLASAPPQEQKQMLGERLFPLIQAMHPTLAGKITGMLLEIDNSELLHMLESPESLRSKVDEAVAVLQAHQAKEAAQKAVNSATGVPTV

For `C[C@@H]1CN([C@H](C)CO)C(=O)Cc2cc(NC(=O)C3CCCCC3)ccc2O[C@H]1CN(C)Cc1ccc(Oc2ccccc2)cc1`, the AC50 [1] was 2.45 µM (active).
With `CCOC(=O)C1C(C)=CC(=O)CC1c1ccco1` (stereo unspecified) the IC50 [2] was > 47.1 µM (inactive) and the EC50 [3] was > 53 µM (inactive).
With `COc1ccc(CCN2C(=O)C3C(C2=O)C2C=CC3C23CC3)cc1OC` (stereo unspecified) the EC50 [4] was > 260 µM (inactive).
For `O=C(CSc1nncc2ccccc12)N1CCOCC1`, the IC50 [5] was > 66 µM (inactive) and the IC50 [6] was > 66 µM (inactive).
With `CCOC(=O)c1c(N)sc2c1CCS(=O)(=O)C2` the IC50 [5] was > 66 µM (inactive) and the IC50 [6] was > 66 µM (inactive).
In the case of `CCN(c1ccccc1)S(=O)(=O)c1ccc(NC(=O)c2ccco2)cc1`, the IC50 [2] is reported as > 47.1 µM (inactive) and the EC50 [3] is reported as > 53 µM (inactive).
In the case of `Cc1csc2ncnc(N3CCN(C(=O)Nc4ccc(OC(F)(F)F)cc4)CC3)c12`, the IC50 [7] is reported as 6.79 µM (not active).
In the case of `C[C@@H]1CCCCO[C@@H](CN(C)C(=O)Nc2ccc(C(F)(F)F)cc2)[C@@H](C)CN([C@H](C)CO)C(=O)c2cc(NS(=O)(=O)c3ccc(F)cc3)ccc2O1`, the AC50 [1] is reported as 1.85 µM (active).
For `CC1=C(/C=C/C(=O)O)C(C)(C)CCC1`, the EC50 [4] was > 260 µM (inactive).
For `COc1ccc(S(=O)(=O)N(C)C[C@@H]2OCCCC[C@@H](C)Oc3ccc(NC(=O)Nc4ccc(C(F)(F)F)cc4)cc3C(=O)N([C@H](C)CO)C[C@@H]2C)cc1`, the AC50 [1] was 5.92 µM (active).
In the case of `CC(=O)Nc1ccccc1/C=C/c1ccc2c(C)cc(C)c(O)c2n1`, the EC50 [8] is reported as 31.3 µM (active), the IC50 [7] is reported as 10.9 µM (not active) and the EC50 [9] is reported as > 38 µM (not active).
In the case of `COc1ccc(C2=NN=C(c3ccco3)Nc3ccc(F)cc32)cc1`, the IC50 [2] is reported as > 47.1 µM (inactive) and the EC50 [3] is reported as > 53 µM (inactive).
With `CC(C)(C)C(=O)Nc1c2c(nn1-c1ccc(F)cc1)CSC2` the IC50 [5] was > 66 µM (inactive) and the IC50 [6] was > 66 µM (inactive).
For `CN(CC1CCOCC1)C(=O)CC1C(=O)NCCN1Cc1ccc(Cl)c(F)c1` (stereo unspecified), the IC50 [2] was > 47.1 µM (inactive) and the EC50 [3] was > 53 µM (inactive).
For `CC(SC1=NCCS1)C(=O)Nc1nnc(-c2ccc(Br)cc2)s1` (stereo unspecified), the IC50 [2] was > 47.1 µM (inactive) and the EC50 [3] was > 53 µM (inactive).
With `O=C(Nc1cccc(Cl)c1)N1CCC(CO)(CCOc2ccccc2)CC1` the EC50 [4] was 45 µM (active).
For `CCOC(=O)CSc1nc2c(c(=O)[nH]c(=O)n2C)n1C/C=C(/C)Cl`, the IC50 [5] was > 66 µM (inactive) and the IC50 [6] was > 66 µM (inactive).
With `CCCn1c(O)c(N=NC(=O)c2ccco2)c2ccccc21` the EC50 [10] was > 195 µM (not active), the CC50 [11] was > 40 µM (active) and the CC50 [12] was > 40 µM (active).
For `Cc1sc2nc(C)n(/N=C/c3ccc(O)cc3O)c(=O)c2c1C`, the EC50 [4] was > 260 µM (inactive).
With `CCCN1C(=O)c2ccccc2NC1c1ccc(Cl)c(Cl)c1` (stereo unspecified) the EC50 [13] was 38.8 µM (active), the EC50 [14] was > 120 µM (not active) and the EC50 [15] was 16 µM (active). The EC50 [4] was 59.6 µM (active).
